Results reported in US7858790B2, “Modulators of muscarinic receptors” (Vertex Pharmaceuticals Incorporated, priority 2006, dated 2010).

How the values were obtained:
[1] = molecular target: T1, M1 muscarinic receptor (Homo sapiens, UniProt P11229); test: Functional mobilization of intracellular calcium (FLIPR) in CHO cells expressing M1 muscarinic receptor; assay type: cell-based; details: for M1 Activity: CHO cells expressing M1, calcium mobilization; for Emax: CHO, 100% efficacy is the maximum response obtained with the Carbachol control
T1 construct: expressed in transfected cells; host or cells: CHO (M1-CHO recombinant cell line)
T1 sequence (P11229 1-460): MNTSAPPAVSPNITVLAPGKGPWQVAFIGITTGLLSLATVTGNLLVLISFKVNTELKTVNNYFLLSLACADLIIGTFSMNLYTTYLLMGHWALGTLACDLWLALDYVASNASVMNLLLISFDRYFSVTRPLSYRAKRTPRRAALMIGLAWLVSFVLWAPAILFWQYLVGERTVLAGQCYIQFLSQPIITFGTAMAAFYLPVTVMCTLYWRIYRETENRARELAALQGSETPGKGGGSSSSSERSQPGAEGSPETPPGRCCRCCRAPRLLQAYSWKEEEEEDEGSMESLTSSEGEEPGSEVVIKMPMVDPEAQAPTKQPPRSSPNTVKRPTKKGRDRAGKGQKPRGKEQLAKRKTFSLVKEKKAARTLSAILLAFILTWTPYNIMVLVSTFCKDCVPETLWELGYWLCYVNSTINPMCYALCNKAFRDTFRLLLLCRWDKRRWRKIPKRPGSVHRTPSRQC
Experimental: (§1) VI. Assays for Detecting and Measuring Inhibition Properties of Compounds Functional Mobilization of Intracellular Calcium to Determine Muscarinic Receptor Activity:
(§2) CHO cells expressing muscarinic receptors (M1 to M5) are grown as monolayers in tissue culture flasks at 37° C. in a humidified atmosphere containing 5% CO2 and passaged every 3-5 days. The growth media is Dulbecco's modified eagles medium (DMEM, Gibco Cat# 12430-054), containing 25 mM Hepes and supplemented with Fetal Bovine Serum (Hyclone, cat# SH30071.03), 0.1 mM of MEM non-essential amino acids (GIBCO, Cat# 11140-050), 1 mM MEM Sodium Pyruvate (GIBCO Cat# 11360-070) and 100 units/ml of Penicillin G and 100 μg/ml of Streptomycin (GIBCO Cat# 15140-122). The recombinant muscarinic receptor cell lines are grown under antibiotic pressure with media containing 25 μg/ml zeocin and 500 μg/ml G418 (M1-CHO), 4 μg/ml puromycin, 50 μg/ml zeocin and 2.5 μg/ml blasticidin (M2 and M4-CHO) or 50 μg/ml zeocin and 4 μg/ml puromycin (M3 and M5-CHO).
(§3) Cells are harvested at 80-90% confluence using Versene (GIBCO Cat# 15040-066), collected by centrifugation and seeded 18-24 hours prior to running the calcium assay at a density of 5,000-10,000 cells/well in […], clear-bottomed 384-well plates (BD Biocoat, poly-D-lysine, Cat#356663). The day of the experiment, the cells are washed with a plate washer (Bioteck Instruments, ELX 405) using bath buffer (140-mM NaCl, 4.5-mM KCl, 2-mM CaCl2, 1-mM MgCl2, 10-mM Hepes-Na, 10-mM Glucose, pH 7.4, with NaOH) containing 1 mM Probenecid. Next, the calcium dye Fluo-3 (25 μl/well of Fluo-3 μM at 4 μM, Molecular Probes F-1241, in Bath 1 buffer containing 1 mM Probenecid) is added to the 25 μl of Bath 1 remaining in each well after the plate wash and the dye is loaded at 37° C. in the tissue culture incubator for 60-90 min. The fluorescent dye is removed using the plate washer with Bath 1 containing 1 mM Probenecid, leaving 25 μl/well of this solution after the wash. Alternatively, cells can be loaded with the calcium indicator from Molecular Devices (Calcium 3 Assay Reagents, Cat # R7181) adding 5 μl of a 5× solution dye in Bath 1 containing 1 mM Probenecid (10 ml per dye flask cat# R7182 to generate a solution 20×) to 20 μl of the same buffer. After loading for 60 min, the experiment can be run without having to remove the dye.
(§4) Compounds are prepared at a 2× fold concentration in a 96-well plate (round bottom, Costar Corning cat# 3656), by reconstituting the pre-spotted compounds in bath 1 containing 1 mM probenecid. The final concentration DMSO is 0.5%, and the amount of DMSO is normalized across the assay plate. To determine an agonist action of the compounds on muscarinic receptors, the reconstituted compounds are added (25 μl compound/well) to the cell assay plate (containing 25 μl/well) using the multi-channel robotic system of the FLIPR 3 Instrument (Molecular Devices, Sunnyvale, Calif.). To determine a functional inhibitory-action of the compounds on muscarinic receptors, the reconstituted compounds are added (25 μl compound/well) to the assay plate and pre-incubated for 15 min prior to adding 25 μl of Carbachol at 3× the EC80 for each muscarinic subtype. Alternatively, the compounds can be co-applied simultaneously with the agonist. In both assay modes, the fluorescence is recorded for 60 sec (excitation wavelength is […] and emission wavelength 540 nm) using the FLIPR 3 instrument.
(§5) The potency, efficacy and selectivity of the muscarinic compounds were evaluated by screening the compound activity across the whole family (M1 to M5 cells). Compounds were also screened for activity on other proteins such as other GPCRs and ion channels to determine selectivity on M4 receptors.
(§6) Examples of activities and efficacies of the muscarinic compounds of formulae (I, Ia, and Ib) on modulating M1 and M4 receptors are shown below in Table 8. […]

[2] = molecular target: T2, M4 muscarinic receptor (Homo sapiens, UniProt P08173); test: Functional mobilization of intracellular calcium (FLIPR) in CHO cells expressing M4 muscarinic receptor; assay type: cell-based; details: for M4 Activity: CHO cells expressing M4, calcium mobilization; for Emax: CHO, 100% efficacy is the maximum response obtained with the Carbachol control
T2 construct: expressed in transfected cells; host or cells: CHO (M4-CHO recombinant cell line)
T2 sequence (P08173 1-479): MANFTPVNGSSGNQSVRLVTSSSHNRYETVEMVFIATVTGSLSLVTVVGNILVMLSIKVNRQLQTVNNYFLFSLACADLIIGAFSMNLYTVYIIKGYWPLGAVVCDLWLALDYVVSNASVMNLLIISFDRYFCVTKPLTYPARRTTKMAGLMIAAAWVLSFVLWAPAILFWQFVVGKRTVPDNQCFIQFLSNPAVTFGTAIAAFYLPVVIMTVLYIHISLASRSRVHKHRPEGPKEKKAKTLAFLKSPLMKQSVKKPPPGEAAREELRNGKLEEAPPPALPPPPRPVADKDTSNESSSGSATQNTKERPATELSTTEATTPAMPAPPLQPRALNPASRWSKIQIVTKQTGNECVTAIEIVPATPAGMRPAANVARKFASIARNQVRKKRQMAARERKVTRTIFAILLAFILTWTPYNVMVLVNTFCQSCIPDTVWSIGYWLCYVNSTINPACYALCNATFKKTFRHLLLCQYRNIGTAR
Experimental: as §1, §2, §3, §4, §5, §6

CCCOC(=O)N1CCC(N2CCC3(C=C(C(=O)NC(CC)CC)c4ccccc43)CC2)CC1 [compound 42]
M1 Activity [1]: + (activity was measured to be greater than 10.0 μM) | Emax [1]: < 25% | M4 Activity [2]: + (activity was measured to be greater than 10.0 μM) | Emax [2]: < 25%

CCOC(=O)N1CCC(N2CCC3(CC=C(C#N)c4ccccc43)CC2)CC1 [compound 63]
M1 Activity [1]: +++ (activity was measured to be less than 2.0 μM) | Emax [1]: 25 to 100% | M4 Activity [2]: +++ (activity was measured to be less than 2.0 μM) | Emax [2]: 25 to 100%

CCOC(=O)N1CCC(N2CCC3(CC=C(C(=O)NC(C)C)c4ccccc43)CC2)CC1 [compound 72]
M1 Activity [1]: +++ (activity was measured to be less than 2.0 μM) | Emax [1]: 25 to 100% | M4 Activity [2]: +++ (activity was measured to be less than 2.0 μM) | Emax [2]: 25 to 100%

CCC(CC)NC(=O)C1=CC2(CCN(CCCCSC)CC2)c2ccccc21 [compound 55]
M1 Activity [1]: + (activity was measured to be greater than 10.0 μM) | Emax [1]: < 25% | M4 Activity [2]: + (activity was measured to be greater than 10.0 μM) | Emax [2]: < 25%

CC(C)(C)CCN1CCC2(C=C(C(=O)N3CCCCC3)c3ccccc32)CC1 [Compound No. 37]
M1 Activity [1]: +++ (activity was measured to be less than 2.0 μM) | Emax [1]: 25 to 100% | M4 Activity [2]: +++ (activity was measured to be less than 2.0 μM) | Emax [2]: 25 to 100%

O=C(O)C1=CC2(CCN(CC3CCCCC3)CC2)c2ccccc21 [compound 54]
M1 Activity [1]: + (activity was measured to be greater than 10.0 μM) | Emax [1]: < 25% | M4 Activity [2]: + (activity was measured to be greater than 10.0 μM) | Emax [2]: < 25%

CN(C)C(=O)C1=CC2(CCN(CC3CC4C=CC3C4)CC2)c2ccccc21 (stereo not shown) [compound 67]
M1 Activity [1]: + (activity was measured to be greater than 10.0 μM) | Emax [1]: 25 to 100% | M4 Activity [2]: +++ (activity was measured to be less than 2.0 μM) | Emax [2]: 25 to 100%

CCC(CC)NC(=O)C1=CC2(CCN(CCC(C)C)CC2)c2ccccc21 [compound 40]
M1 Activity [1]: + (activity was measured to be greater than 10.0 μM) | Emax [1]: < 25% | M4 Activity [2]: ++ (activity was measured to be from 2.0 μM to 10.0 μM) | Emax [2]: 25 to 100%

CNC(=O)C1=CC2(CCN(C3CCCCC3)CC2)c2ccccc21 [compound 58]
M1 Activity [1]: + (activity was measured to be greater than 10.0 μM) | Emax [1]: 25 to 100% | M4 Activity [2]: +++ (activity was measured to be less than 2.0 μM) | Emax [2]: 25 to 100%

CCC(CC)NC(=O)C1=CC2(CCN(C3CCN(C(=O)N(C)C)CC3)CC2)c2ccccc21 [compound 33]
M1 Activity [1]: + (activity was measured to be greater than 10.0 μM) | Emax [1]: < 25% | M4 Activity [2]: + (activity was measured to be greater than 10.0 μM) | Emax [2]: < 25%

CNC(=O)C1=CC2(CCN(C3CCCCCC3)CC2)c2ccccc21 [compound 41]
M1 Activity [1]: ++ (activity was measured to be from 2.0 μM to 10.0 μM) | Emax [1]: 25 to 100% | M4 Activity [2]: +++ (activity was measured to be less than 2.0 μM) | Emax [2]: 25 to 100%

CC(C)NC(=O)C1=CCC2(CCN(C3C[C@@H]4CC[C@@H]3C4)CC2)c2ccccc21 (stereo partly shown) [compound 36]
M1 Activity [1]: + (activity was measured to be greater than 10.0 μM) | Emax [1]: < 25% | M4 Activity [2]: + (activity was measured to be greater than 10.0 μM) | Emax [2]: < 25%

CCOC(=O)N1CCC(N2CCC3(CC=C(C(=O)N(C)C)c4ccccc43)CC2)CC1 [compound 4, ethyl 4-(4-(dimethylcarbamoyl)-2H-spiro[naphthalene-1,4′-piperidine]-1′-yl)piperidine-1-carboxylate]
M1 Activity [1]: +++ (activity was measured to be less than 2.0 μM) | Emax [1]: 25 to 100% | M4 Activity [2]: +++ (activity was measured to be less than 2.0 μM) | Emax [2]: 25 to 100%

CCOC(=O)N1C2CCC1CC(N1CCC3(C=C(C(=O)O)c4ccccc43)CC1)C2 (stereo not shown) [compound 13]
M1 Activity [1]: +++ (activity was measured to be less than 2.0 μM) | Emax [1]: 25 to 100% | M4 Activity [2]: +++ (activity was measured to be less than 2.0 μM) | Emax [2]: 25 to 100%

CN(C)C(=O)C1=CCC2(CCN(CCC(C)(C)C)CC2)c2ccccc21 [compound 46]
M1 Activity [1]: ++ (activity was measured to be from 2.0 μM to 10.0 μM) | Emax [1]: 25 to 100% | M4 Activity [2]: +++ (activity was measured to be less than 2.0 μM) | Emax [2]: 25 to 100%

CNC(=O)C1=CC2(CCN(CCC3CCSCC3)CC2)c2ccccc21 [compound 9]
M1 Activity [1]: + (activity was measured to be greater than 10.0 μM) | Emax [1]: 25 to 100% | M4 Activity [2]: + (activity was measured to be greater than 10.0 μM) | Emax [2]: < 25%

CCOC(=O)N1CCC(N2CCC3(C=C(C(=O)NC(CC)CC)c4ccccc43)CC2)CC1 [compound 28]
M1 Activity [1]: ++ (activity was measured to be from 2.0 μM to 10.0 μM) | Emax [1]: 25 to 100% | M4 Activity [2]: +++ (activity was measured to be less than 2.0 μM) | Emax [2]: 25 to 100%

CCC(CC)NC(=O)C1=CC2(CCN(CC3CC4C=CC3C4)CC2)c2ccccc21 (stereo not shown) [compound 30]
M1 Activity [1]: + (activity was measured to be greater than 10.0 μM) | Emax [1]: < 25% | M4 Activity [2]: +++ (activity was measured to be less than 2.0 μM) | Emax [2]: 25 to 100%

CC(C)(C)CCN1CCC2(CC=C(C#N)c3ccccc32)CC1 [compound 51, 1′-(3,3-dimethylbutyl)-2H-spiro[naphthalene-1,4′-piperidine]-4-carbonitrile]
M1 Activity [1]: +++ (activity was measured to be less than 2.0 μM) | Emax [1]: 25 to 100% | M4 Activity [2]: +++ (activity was measured to be less than 2.0 μM) | Emax [2]: 25 to 100%
